From ChEMBL document CHEMBL5620412, “Discovery of benzofuran-2-carboxylic acid derivatives as lymphoid tyrosine phosphatase (LYP) inhibitors for cancer immunotherapy” (Eur J Med Chem, 2023)

Key:
[1] = Selectivity ratio of IC50 for inhibition of N-terminal His-tagged PTP1B catalytic domain (1 to 294 residues) (unknown origin) expressed in Escherichia coli BL21 (DE3) cells to IC50 for inhibition of N-terminal His-tagged LYP catalytic domain (1 to 294 residues) (unknown origin) expressed in Escherichia coli BL21 (DE3) cells using pNPP as substrate
[2] = biological target: T1, Tyrosine-protein phosphatase non-receptor type 12 (Homo sapiens, UniProt Q05209); assay: Inhibition of N-terminal His-tagged PTPN12 catalytic domain (1 to 294 residues) (unknown origin) expressed in Escherichia coli BL21 (DE3) cells
T1 sequence (Q05209 whole entry): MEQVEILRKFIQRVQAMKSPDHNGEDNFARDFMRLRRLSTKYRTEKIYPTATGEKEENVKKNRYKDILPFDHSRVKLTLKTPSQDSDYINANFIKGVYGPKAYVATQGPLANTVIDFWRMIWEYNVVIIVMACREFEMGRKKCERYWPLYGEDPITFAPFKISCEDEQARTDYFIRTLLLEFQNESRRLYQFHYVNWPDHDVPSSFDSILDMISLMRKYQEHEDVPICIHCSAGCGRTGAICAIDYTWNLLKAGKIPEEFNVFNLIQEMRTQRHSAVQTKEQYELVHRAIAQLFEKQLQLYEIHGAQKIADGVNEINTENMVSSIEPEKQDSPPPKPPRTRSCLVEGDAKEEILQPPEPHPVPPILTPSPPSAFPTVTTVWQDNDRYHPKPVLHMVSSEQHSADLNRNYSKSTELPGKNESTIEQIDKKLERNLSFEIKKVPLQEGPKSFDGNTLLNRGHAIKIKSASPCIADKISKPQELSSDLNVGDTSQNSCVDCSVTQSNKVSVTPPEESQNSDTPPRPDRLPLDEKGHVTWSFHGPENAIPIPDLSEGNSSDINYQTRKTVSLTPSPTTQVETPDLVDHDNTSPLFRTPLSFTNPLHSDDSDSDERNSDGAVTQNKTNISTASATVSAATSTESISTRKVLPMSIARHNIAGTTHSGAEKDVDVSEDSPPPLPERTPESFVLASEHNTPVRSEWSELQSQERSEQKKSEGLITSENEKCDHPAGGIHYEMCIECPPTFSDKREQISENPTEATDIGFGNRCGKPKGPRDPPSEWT

[3] = biological target: T2, Tyrosine-protein phosphatase non-receptor type 22 (Homo sapiens, UniProt Q9Y2R2); assay: Inhibition of N-terminal His-tagged LYP catalytic domain (1 to 294 residues) (unknown origin) expressed in Escherichia coli BL21 (DE3) cells using pNPP as substrate by absorbance based plate reader analysis
T2 sequence (Q9Y2R2 whole entry): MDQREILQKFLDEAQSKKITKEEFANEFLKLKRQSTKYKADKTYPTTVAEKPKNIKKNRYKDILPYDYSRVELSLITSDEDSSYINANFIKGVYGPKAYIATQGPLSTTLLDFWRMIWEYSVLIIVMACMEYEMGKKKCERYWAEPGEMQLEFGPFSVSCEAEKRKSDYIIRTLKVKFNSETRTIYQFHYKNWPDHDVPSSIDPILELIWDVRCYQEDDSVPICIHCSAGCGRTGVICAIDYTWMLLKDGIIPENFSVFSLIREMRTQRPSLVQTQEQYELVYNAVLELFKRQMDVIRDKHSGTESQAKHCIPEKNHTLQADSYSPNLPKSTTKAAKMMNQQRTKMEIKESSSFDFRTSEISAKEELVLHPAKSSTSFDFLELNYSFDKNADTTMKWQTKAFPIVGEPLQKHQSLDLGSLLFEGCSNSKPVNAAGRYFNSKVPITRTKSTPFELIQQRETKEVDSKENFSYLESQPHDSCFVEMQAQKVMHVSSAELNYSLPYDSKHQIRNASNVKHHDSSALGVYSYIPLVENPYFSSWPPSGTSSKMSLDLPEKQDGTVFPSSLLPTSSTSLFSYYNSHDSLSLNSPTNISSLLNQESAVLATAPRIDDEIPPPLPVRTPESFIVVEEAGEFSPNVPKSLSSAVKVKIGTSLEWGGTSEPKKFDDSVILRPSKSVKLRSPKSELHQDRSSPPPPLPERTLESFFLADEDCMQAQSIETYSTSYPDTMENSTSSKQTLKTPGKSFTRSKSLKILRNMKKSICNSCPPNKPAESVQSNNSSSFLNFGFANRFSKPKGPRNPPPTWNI

[4] = biological target: T3, Tyrosine-protein phosphatase non-receptor type 1 (Homo sapiens, UniProt P18031); assay: Inhibition of N-terminal His-tagged PTP1B catalytic domain (1 to 294 residues) (unknown origin) expressed in Escherichia coli BL21 (DE3) cells
T3 sequence (P18031 whole entry): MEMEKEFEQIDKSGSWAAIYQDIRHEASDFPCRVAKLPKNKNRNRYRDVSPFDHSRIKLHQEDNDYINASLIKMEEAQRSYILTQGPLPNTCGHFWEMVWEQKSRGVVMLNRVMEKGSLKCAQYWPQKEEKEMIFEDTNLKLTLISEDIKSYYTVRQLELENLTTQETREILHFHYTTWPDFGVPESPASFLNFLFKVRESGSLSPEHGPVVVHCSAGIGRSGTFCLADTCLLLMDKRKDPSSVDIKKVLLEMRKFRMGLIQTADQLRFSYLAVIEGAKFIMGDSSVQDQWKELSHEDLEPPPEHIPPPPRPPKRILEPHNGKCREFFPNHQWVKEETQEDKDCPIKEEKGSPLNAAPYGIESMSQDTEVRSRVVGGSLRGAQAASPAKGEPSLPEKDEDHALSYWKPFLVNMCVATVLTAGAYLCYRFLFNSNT

[5] = biological target: T4, Tyrosine-protein phosphatase non-receptor type 5 (Homo sapiens, UniProt P54829); assay: Inhibition of N-terminal His-tagged PTPN5 catalytic domain (1 to 294 residues) (unknown origin) expressed in Escherichia coli BL21 (DE3) cells
T4 sequence (P54829 whole entry): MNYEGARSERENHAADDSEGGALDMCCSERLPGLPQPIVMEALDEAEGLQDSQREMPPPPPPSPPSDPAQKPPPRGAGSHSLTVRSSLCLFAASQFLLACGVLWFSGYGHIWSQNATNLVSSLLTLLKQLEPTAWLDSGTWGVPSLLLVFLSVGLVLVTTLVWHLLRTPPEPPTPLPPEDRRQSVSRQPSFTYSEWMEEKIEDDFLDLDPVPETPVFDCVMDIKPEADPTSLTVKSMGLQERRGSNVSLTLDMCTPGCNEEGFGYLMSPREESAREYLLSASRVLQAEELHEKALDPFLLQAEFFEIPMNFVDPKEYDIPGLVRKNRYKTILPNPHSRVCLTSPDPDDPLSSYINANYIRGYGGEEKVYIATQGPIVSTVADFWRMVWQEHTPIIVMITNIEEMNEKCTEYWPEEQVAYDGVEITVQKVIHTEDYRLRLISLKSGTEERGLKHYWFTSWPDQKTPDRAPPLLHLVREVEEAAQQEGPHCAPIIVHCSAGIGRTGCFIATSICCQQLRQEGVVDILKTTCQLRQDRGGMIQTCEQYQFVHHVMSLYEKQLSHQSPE

[6] = biological target: T2, Tyrosine-protein phosphatase non-receptor type 22; assay: Competitive inhibition of N-terminal His-tagged LYP catalytic domain (1 to 294 residues) (unknown origin) expressed in Escherichia coli BL21 (DE3) cells using pNPP as substrate assessed as inhibition constant by Lineweaver-Burk plot analysis

SMILES: O=C(O)c1cc2cc(N(Cc3cccc(-c4ccccc4)c3)S(=O)(=O)c3ccc(-c4ccccc4)cc3)ccc2o1
- Ratio IC50 [1]: 1.8
- IC50 [2]: 6.4 µM
- IC50 [3]: 3.23 µM
- IC50 [4]: 5.9 µM
- IC50 [5]: > 20 µM

SMILES: COc1ccc(-c2ccc(CN(c3ccc4oc(C(=O)O)cc4c3)S(=O)(=O)c3ccc(Cl)c([N+](=O)[O-])c3)cc2)cc1
- Ki [6]: 1.34 µM
- IC50 [2]: 12.3 µM
- IC50 [4]: 13.7 µM
- IC50 [5]: > 20 µM

SMILES: CC(=O)C1=C(C)N=c2s/c(=C/c3ccc(OCc4ccc(C(=O)O)cc4)cc3)c(=O)n2C1c1ccc(N(C)C)cc1 (stereo unspecified)
- Ratio IC50 [1]: 1.2
- Ki [6]: 4.38 µM
- IC50 [2]: 8.2 µM
- IC50 [3]: 6.1 µM
- IC50 [4]: 7.1 µM
- IC50 [5]: > 20 µM

SMILES: O=C(O)c1cc2cc(N(Cc3ccc(-c4ccccc4)cc3)S(=O)(=O)c3ccc(-c4cccc(O)c4)cc3)ccc2o1
- Ratio IC50 [1]: 1.8
- IC50 [2]: 10.6 µM
- IC50 [3]: 3.59 µM
- IC50 [4]: 6.4 µM
- IC50 [5]: > 20 µM

SMILES: O=C(O)c1cc2cc(N(Cc3ccc(OCc4ccccc4)cc3)S(=O)(=O)c3ccc(-c4ccccc4)cc3)ccc2o1
- Ratio IC50 [1]: > 3.5
- Ki [6]: 0.93 µM
- IC50 [2]: 11.7 µM
- IC50 [3]: 2.55 µM
- IC50 [4]: 10.7 µM
- IC50 [5]: > 20 µM
